From patent US20090182014A1, “INSECTICIDAL COMPOSITIONS COMPRISING COMPOUNDS HAVING INHIBITORY ACTIVITY VERSUS ACYL COA: CHOLESTEROL ACYLTRANSFERASE OR SALTS THEREOF AS EFFECTIVE INGREDIENTS” (priority 2003, published 2009)
Values after ≈ are worked out from the molar mass of the structure shown.

Columns and labels:
[1] = tested on: acyl CoA:cholesterol acyltransferase (ACAT); assay: Assay for ACAT inhibitory activity using hepatic microsomes, cholesterol and 14C-labeled oleoyl-CoA; type: biochemical
Method: In the method, ACAT activity was determined using hepatic microsomes as a source of ACAT with substrates of cholesterol and ^14C-labeled oleoyl-CoA. The radioactivity of the reaction product cholesterol ester was estimated as the ACAT activity.
In detail, a reaction mixture was prepared as follows. […] To stabilize enzyme reaction, bovine serum albumin was added to the mixture to a final concentration of 30 μM. Then, a sample dissolved in DMSO or methanol was added to the mixture. The resulting reaction mixture was preincubated at 37° C. for 30 min. The enzyme reaction was then initiated by adding [1-^14C]-oleoyl Coenzyme A solution to a final concentration of 0.04 μCi. After 30 min of incubation at 37° C., the reaction was stopped by addition of 1 ml of an isopropanol-heptane solution. Then, 0.6 ml of n-heptane and 0.4 ml of KPB buffer were added to the terminated reaction mixture. The mixture was well mixed and allowed to stand at room temperature for 2 min. After phase separation, 200 μl of the supernatant was put into a scintillation vial. After adding 4 ml of a scintillation cocktail (Lipoluma, Lumac Co.) to the vial, the amount of synthesized cholesteryl oleate was measured with a scintillation counter (Packard Delta-200). The inhibitory activity versus ACAT was calculated according to the following Equation 1:
Inhibitory activity (%)=[1−(T−B/C−B)]×100
T: cpm in a test reaction mixture that contains a compound of the present invention along with an enzyme source;

[2] = tested on: Tenebrio molitor L larvae; assay: Diet (wheat bran) assay against Tenebrio molitor L larvae: larval weight, growth, killing; type: in vivo; conditions: 1 mg mixed with 10 g wheat bran; for larval weight-reducing effect in T. molitor L larvae (FIG. 8): larval weight on day 3 and 7, compared with control
Method: Among the present compounds with an ACAT inhibitory activity, the phenylpyropene A, B and C (Formulas 2 to 4) were tested for weight-reducing effect in larval insects. In this test, larvae of Tenebrio molitor L. was used as an experimental insect, which was obtained from the insect research lab, KRIBB, Korea. Healthy second-instar larvae (10-12 mm) of Tenebrio molitor L was selected 24 hrs before performing this test. Each of the compounds of Formulas 2 to 4 was dissolved in 10% acetone to a final concentration of 1 mg/ml and serially diluted. 1 ml of the diluted compound solution was mixed with […] of wheat bran commonly used as a diet. The resulting mixture was put into a glass petri dish (90×20 mm), and the petri dish was placed in a desiccator for about 2 hrs under pressure to remove the organic solvent. After being weighed, 10 highly mobile larvae of T. molitor L for each test set were placed in a petri dish (87×15 mm) with a filter paper disk, together with the mixture of the present compound and wheat bran. Then, the larvae were grown in at 25±±1° C. under 40-45% relative humidity with a 16-hour light/8-hours dark cycle. After 72 hrs, larval weight and diet intake were recorded every three days. This assay was performed on three replicates, and a control group was treated with 10% acetone.

[3] = tested on: Plutella xylostella L larvae; assay: Leaf-disk bioassay against Plutella xylostella L larvae; type: in vivo; conditions: treated with 0.001 to 1 mg; investigated at intervals of 24 hrs; compared with control
Method: Larvae of Plutella xylostella L was used as an experimental insect in this test, which was obtained from the Insect Research Lab, Korean Research Institute of Bioscience and Biotechnology (KRIBB), Oun-dong, Yusong-ku, Taejon, Korea. After being weighed accurately, a proper amount of the present compounds with an ACAT inhibitory activity were was dissolved in acetone, mixed with nine volumes of a 100 ppm Triton X-100 stock solution, and serially diluted, thus giving active compound solutions. A diet for the growth of the P. xylostella L larvae was prepared, as follows: leaves of cabbages with uniform growth were cut into leaf disks (3.0 cm in diameter), dipped in the active compound solutions for 30 sec, and dried in a hood for 60 min. Each of the active compound-treated leaf disks was put in a petri dish (55×20 mm) with a filter paper disk. Then, 10 second-instar larvae of P. xylostella L were placed on each leaf disc using a soft brush with caution not to damage the larvae, and grown in an incubator (25±1° C., 40-45% relative humidity, 16L:8D). After 24 hrs and 48 hrs, mortality was recorded. […] This leaf-disk bioassay was performed on three replicates, and LC50 (50% lethal concentration) was calculated by the Probit method developed by Finney (1982).

[4] = calculated from the μg/ml value and molecular weight
[5] = hepatic microsomes as source of ACAT

Compound | ACAT inhibitory activity ([1]; concentration 20 μg/ml) [%] | ACAT inhibitory activity ([1]; concentration 100 μg/ml) [%] | larval growth inhibition in T. molitor L larvae (FIG. 9) [2] | larval weight-reducing effect in T. molitor L larvae (FIG. 8) [2] | also measured
CCCCCCCC/C=C\CCCCCCCC(=O)Nc1c(OC)cc(OC)cc1OC [Formula 7] | 96.6 | 97.8 |  |  | 
pheophorbide a |  |  | larval growth inhibition was found |  | 
CC(=O)OCC1(C)C(OC(C)=O)CC[C@@]2(C)C1CC[C@@]1(C)Oc3cc(-c4ccccc4)oc(=O)c3CC21 (stereo partly shown) [phenylpyropene B] |  |  |  | lasting larval weight-reducing effect | IC50 [1, 4]: 12.8 µM; IC50 (ACAT activity) [1, 5]: 6.5 µg/mL (≈ 12.8 µM)
CC(=O)OC[C@@]1(C)[C@@H]2C[C@H](OC(C)=O)[C@@]3(C)Oc4cc(-c5cccnc5)oc(=O)c4[C@H](O)[C@@H]3[C@@]2(C)CC[C@@H]1OC(C)=O [pyripyropene A] |  |  | larval growth inhibition was found |  | T. molitor L insect killed in the larval and pupa stages [2]: most of the T. molitor L insect was killed in the larval and pupa stages; insecticidal effect against P. xylostella L larvae (FIG. 6) [3]: lasting insecticidal effect in a dose-dependant manner
O=C(/C=C/C=C/c1ccc2c(c1)OCO2)N1CCCCC1 [Formula 10] | 17.6 | 82.0 |  |  | 
CCCCCCCNC(=O)CCCCSC1NC(c2ccccc2)C(c2ccccc2)N1 (stereo not shown) [Formula 11] | 84.8 | 89.6 |  |  | 
Cc1cc(Cc2cc(C)cc(C(C)(C)C)c2O)c(O)c(C(C)(C)C)c1 [Formula 9] | 93.4 | 98.4 |  |  | 
CC(C)c1cccc(C(C)C)c1OC(=O)NS(=O)(=O)Oc1c(C(C)C)cccc1C(C)C [Formula 8] | 84.5 | 93.8 |  |  | 
CC(=O)OC1CC[C@@]2(C)C(CC[C@@]3(C)Oc4cc(-c5ccccc5)oc(=O)c4CC23)C1(C)C (stereo partly shown) [phenylpyropene C] |  |  | larval growth inhibition was found | lasting larval weight-reducing effect | IC50 [1, 4]: 16 µM; IC50 (ACAT activity) [1, 5]: 7.2 µg/mL (≈ 16 µM)
CC(=O)OCC1(C)C2C[C@H](OC(C)=O)[C@@]3(C)Oc4cc(-c5ccccc5)oc(=O)c4[C@H](O)C3[C@@]2(C)CC[C@@H]1OC(C)=O (stereo partly shown) [phenylpyropene A] |  |  | larval growth inhibition was found | lasting larval weight-reducing effect | IC50 ([1]; calculated from the ng/ml value and molecular weight): 0.086 µM; IC50 (compound concentration to inhibit by 50% of ACAT activity) [1, 5]: 0.5 µg/mL
